Data set [1] relates to panel of 97 protein kinases. The data set can be described thus: KINOMEscan active-site dependent competition binding assay. Conditions: 10 μM; data not shown. The protocol: Kinase assays: The fructose-6-phosphate kinase activity of human recombinant PFKFB4 in the presence of DMSO±indicated 5MPN concentrations was assayed as previously described. The activity of 5MPN against 97 kinases was examined using a commercially available active-site dependent competition binding assay core service (KINOMEscanEDGE) that quantifies the capacity of lest agents to compete with an immobilized, active-site directed ligand using a DNA-tagged kinase and immobilized ligand and compound. For example, enzyme inhibition was studies using a ADP-Glo assay. […] ADP is converted into ATP, which is converted into light by a luciferase.

For data set [2], the system named is A549. Description: viable cell count of A549 cells. The class given is cell-based. Conditions: A549, 48 hours. The protocol:
(§1) Cell Viability: Cells were incubated in 20% trypan blue (Sigma) for 5 minutes. Cells excluding trypan blue were counted using a standard hemocytometer (Hausser Scientific) to determine total numbers of viable cells. Data are expressed as mean±SD of three experiments.

Data set [3] in a line: pharmacokinetic profile of 5MPN after IV and oral administration. Conditions: C57BL/6 mice. The class given is in vivo. The protocol: In vivo Studies. The pharmacokinetic profile was determined in female C57BL/6 mice following IV and oral administration of 5MPN. Using only female mice lowered the animal numbers required for meaningful results without issues of potential gender differences in exposure. Eight time points (n=3/time point) were used to determine PK parameters calculated using WinNonLin v5.0. Plasma samples were extracted using acetonitrile and analyzed by LC/MS-MS using a PhenomexSynergi Polar-RP 4 micron 50×2.0 mm column eluted with a biphasic mobile phase (0.5% formic acid in acetonitrile and water).

In data set [4] the test system is HCT116. Description: viable cell count of HCT116 cells. The class given is cell-based. Particulars: HCT116, 48 hours. The protocol: as §1
Data set [5] relates to PFKFB4−/− lung fibroblasts. The data set can be described thus: cell counts of tamoxifen-inducible PFKFB4-/- lung fibroblasts. The class given is cell-based, mice. Particulars: 4HT-induced deletion, 10 μM 5MPN, 24 hours.
Description: (§2) Cell lines and cell culture: H460, H1299, H441, H522 and A549 non-small cell lung cancer (NSCLC), MDA-MB-231 (breast), LNCaP (prostatic) and HCT116 (colon) adenocarcinoma and Lewis lung carcinoma (LLC) cell lines were obtained from ATCC and used within 6 months of acquisition, PFKFB4^7 ear pinna Fibroblasts isolated from TamCre/loxP/PFKFB4^−/− mice were immortalized as described previously (Chesney J et al. Fructose-2,6-bisphosphate synthesis by 6-phosphofructo-2-kinase/fructose-2,6-bisphosphatase 4 (PFKFB4) is required for the glycolytic response to hypoxia and tumor growth. Oncotarget 2014 Aug. 30; 5(16):6670-86). Normal bronchial epithelial cells (NHBE) were obtained from Lonza and NHBE cells expressing telomerase, SV40 large T antigen and activated Ras (hT/LT/Ras) were a gift from Dr. B. J. Rollins, Dana Farber Cancer Institute. All cell lines were tested and found negative for mycoplasma (PCR Mycoplasma Detection Kit, ABM). […]
as §1

The test system of data set [6] is H460 cells. Description: apoptosis by flow cytometry (annexin V / propidium iodide) in H460 cells. The class given is cell-based, human. Conditions: H460, 10 μM 5MPN. As for the experimental part: Flow Cytometry: To measure apoptosis, cells were stained with annexin V and propidium iodide and examined as previously described. […] DMSO used as vehicle. For cell cycle experiments, cells were detached, washed with cold PBS and fixed in 70% ethanol (4° C. 30 minutes). The cells then were pelleted by centrifugation, resuspended in PBS containing PI and RNase A, incubated at 37° C. in the dark for 30 minutes and analyzed by flow cytometry (BD FACSCalibur). Data were analyzed using FlowJo software (TREE STAR Inc.). Results were calculated as the mean±SD of three experiments.
Background: Flow cytometry measures light scatter and fluorescence of single cells or particles in a stream.

In data set [7] the test system is H1299. Description: viable cell count of H1299 cells. It is filed as cell-based. Particulars: H1299, 48 hours. As for the experimental part:
as §1

Data set [8] has as its system LLC xenografts. The data set can be described thus: FDG uptake by micro-positron emission tomography in tumor-bearing mice. It is filed as in vivo. Conditions: 120 mg/kg by gavage, once. As for the experimental part: At the end of the experiment, animals were euthanized, tumors removed and sections fixed in 10% formaldehyde for immunohistochemistry or snap-frozen in liquid nitrogen for analyses. Subsets of tumor-bearing mice (n=3) were injected i.p. with 2-[^18F]-fluoro-2-deoxyglucose (FDG, 150 μCi, 100 μl) and imaged by micro-positron emission tomography as previously described. Regions of interest in the tumors and cerebellum were quantified in quadruplicate and expressed as the mean±SD of the tumor:cerebellar FDG uptake ratio. Animal experiments were approved by the University of Louisville Institutional Animal Care and Use Committee.

Data set [9] concerns LNCaP. The data set can be described thus: viable cell count of LNCaP cells. The class given is cell-based. Particulars: 48 hours. As for the experimental part: as §1
The subject of data set [10] is H522. The data set can be described thus: viable cell count of H522 cells. The class given is cell-based. Particulars: H522, 48 hours. The protocol: as §1
Data set [11] relates to NHBE cells. Description: viable cell count of normal human bronchial epithelial cells. The class given is cell-based. Particulars: 48 hours.
Description: as §2, §1

Data set [12] concerns PFK-1. Description: kinase activity of PFK-1. The class given is biochemical. Particulars: 10 μM.
The subject of data set [13] is H460 cells. Description: F2,6BP measurements in H460 cells. It is filed as cell-based, human. The protocol: F2,6BP measurements: Cells or tissues were prepared as previously described and F2,6BP content measured using a coupled enzyme reaction following the method of Van Schaftingen et at (Van Schaftingen E et al. A kinetic study of pyrophosphate: fructose-6-phosphate phosphotransferase from potato tubers. Application to a microassay of fructose 2,6-bisphosphate. Eur J Biochem 1982 December; 129(1): 191-5) and normalized to total cellular protein measured by the bicinchoninic acid assay (BCA, Thermo Scientific). […] In order to measure F2,6BP, cells were harvested, washed with PBS, lysed in NaOH/Tris acetate by heating at 80° C. and lysates neutralized to pH 7.2. F2,6BP content was measured using a coupled enzyme reaction following the method of Van Schaftingen et al (Eur J Biochem. 1982; 129(1): 191-195). The F2,6BP concentration was normalized to total cellular protein measured by the bicinchoninic acid assay (BCA, Thermo Scientific) All data are expressed as the mean±SD of three experiments. Statistical significance was assessed by the two-sample t test (independent variable).

Data set [14] has as its target PFKFB3 (Homo sapiens, UniProt Q16875). Description: kinase activity of PFKFB3. Conditions: 10 μM. The class given is biochemical.

Sequence of PFKFB3 (Q16875 whole entry, species assumed): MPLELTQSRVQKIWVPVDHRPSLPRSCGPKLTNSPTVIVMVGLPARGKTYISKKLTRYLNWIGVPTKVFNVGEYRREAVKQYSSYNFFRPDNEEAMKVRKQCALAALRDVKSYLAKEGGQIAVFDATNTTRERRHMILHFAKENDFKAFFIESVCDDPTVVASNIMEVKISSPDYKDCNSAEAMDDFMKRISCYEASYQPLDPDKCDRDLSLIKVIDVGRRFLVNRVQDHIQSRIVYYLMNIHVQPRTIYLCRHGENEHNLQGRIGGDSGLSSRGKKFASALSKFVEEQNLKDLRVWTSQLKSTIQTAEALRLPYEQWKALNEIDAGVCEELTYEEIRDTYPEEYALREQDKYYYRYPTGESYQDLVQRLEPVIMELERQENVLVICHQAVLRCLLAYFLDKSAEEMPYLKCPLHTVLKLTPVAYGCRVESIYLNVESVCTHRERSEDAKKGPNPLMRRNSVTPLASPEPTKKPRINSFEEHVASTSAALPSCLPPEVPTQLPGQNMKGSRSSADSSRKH

Take `COc1cccc2c(NCCCCCO[N+](=O)[O-])ccnc12` [5MPN, 5-[(8-methoxyquinolin-4-yl)amino]pentyl nitrate]: the “inhibition of a panel of 97 protein kinases” value in [1] is given as “not inhibited”. Moreover, the “growth, viable cells” value in data set [2], in data set [4], in data set [7], in [9] and in [10] was “dose-dependent reduction in growth” throughout. Moreover, the oral bioavailability entry in [3] is recorded as “High Oral Bioavailability”. Further, in [3] (IV and oral), the “pharmacokinetics of intravenous and oral administration” value was “both routes were adequate to achieve potentially therapeutic concentrations”. Also, the “anti-proliferative effect with genomic deletion of Pfkfb4” value in data set [5] is “sensitized”. Further, the apoptotic cells entry in [6] is “minimal increase”. Besides, the “2-[18F]-fluoro-2-deoxyglucose uptake, positron emission tomography” value in data set [8] is given as “marked reduction”. The “cell growth, live cells” value in [11] is recorded as “virtually unaffected”. For the same compound, in data set [12], the “inhibition of PFK-1 kinase activity” value is listed as “no inhibition of kinase activity”. For the same compound, in [13] (H460, 10 μM 5MPN, 6-72 hours), the “intracellular concentration of F2,6BP” value is “reduced”. For the same compound, the “reduction in F2,6BP with over-expression of PFKFB4” value in data set [13] (H460 transfected with PFKFB4, 10 μM 5MPN, 24 hours) is “reversed”. Also, the “inhibition of PFKFB3 kinase activity” value in data set [14] was “no inhibition of kinase activity”.
